The text below walks through data of patent US5364864A, “1,4-disubstituted piperidines, their preparation and their application in therapy” (priority 1991, dated 1994).

The test deals with acetylcholinesterase (Homo sapiens, UniProt P22303). The experiment in a line: Inhibition of acetylcholinesterase activity (method of Ellman et al.). Format: biochemical.
acetylcholinesterase, sequence (P22303 32-614): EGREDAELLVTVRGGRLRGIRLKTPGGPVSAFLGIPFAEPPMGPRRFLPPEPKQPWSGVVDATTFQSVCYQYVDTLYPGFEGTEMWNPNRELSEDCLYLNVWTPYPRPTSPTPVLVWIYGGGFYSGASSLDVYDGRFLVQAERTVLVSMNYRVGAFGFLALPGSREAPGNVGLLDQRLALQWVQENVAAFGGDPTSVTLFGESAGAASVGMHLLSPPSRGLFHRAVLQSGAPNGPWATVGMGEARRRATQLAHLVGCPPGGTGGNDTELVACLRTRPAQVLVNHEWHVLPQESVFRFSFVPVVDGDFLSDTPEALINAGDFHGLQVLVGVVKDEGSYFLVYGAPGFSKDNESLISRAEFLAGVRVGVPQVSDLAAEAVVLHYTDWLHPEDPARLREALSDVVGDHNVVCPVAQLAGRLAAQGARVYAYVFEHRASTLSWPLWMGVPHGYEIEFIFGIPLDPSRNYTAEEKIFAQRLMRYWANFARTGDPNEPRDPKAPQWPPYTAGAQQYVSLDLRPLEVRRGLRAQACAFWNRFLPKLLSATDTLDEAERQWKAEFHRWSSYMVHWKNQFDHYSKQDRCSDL

As to `S=C(NCCC1CCN(Cc2ccccc2)CC1)Nc1ccccc1` [Compound 1, 1-Phenyl-3-[2-(1-benzyl-4-piperidyl)ethyl]thiourea], it took 0.32 µM to reach half-maximal inhibition (IC50).
